Series [1] in a line: Noncompartmental toxicokinetic analysis of plasma after oral (gavage) dosing in piglets. The following applies: plasma, mean±SD; for Cmax/dose: oral BPA 438 or 200 μmol/kg (n=12) or oral BPS 40 or 200 μmol/kg (n=10); for AUClast/dose / Tmax: oral BPA or BPS dosing. The procedure:
Table 1 summarizes the protocol of the experiments and the plasma and urine datasets further considered for TK analyses.
For administrations by gavage, BPA powder was dissolved in ethanol–corn oil (1:9, vol:vol) at 100mg/mL (Exp. 1).
(§1) The plasma analytes concentration–time data from individual piglets were used to derive the maximum concentration (Cmax), and the time to maximum concentration (Tmax). The area under the plasma concentration–time curves from dosing time to the time of the last measurable concentration ( AUC0–tlast ) were calculated using the linear trapezoidal rule (Equation 1). (1) AUC0–tlast=∑0tlast(Ci−1+Ci/2)×(ti−ti−1) where Ci is the concentration obtained at the time i ( ti ).
(§2) The area under the plasma concentration time curve from t=0 to infinity ( AUC0–inf ) was obtained using Equation 2. (2) AUC0–inf=AUC0–tlast+AUCtlast–inf where AUCtlast–inf is the area extrapolated from the last observation to infinity, calculated according to Equation 3: (3) AUCtlast–inf=Clast/λz where Clast is the last observed quantifiable plasma concentration, and λz is the slope of the terminal phase, as estimated by linear regression using the best fit option of Phoenix®.

Series [2] can be described thus: Noncompartmental toxicokinetic analysis of plasma after IV dosing in piglets. The following applies: for time after which plasma concentrations were below the LOQ: after IV BPA and BPS administration; for time of maximal plasma glucuronide concentration: after IV BPA and BPS dosing; for Cmax/dose / AUC0-tlast/dose / Tmax: plasma, mean±SD; for Cmax/dose: IV BPA 21.9 or 20 μmol/kg (n=15) or IV BPS 20 μmol/kg (n=16), glucuronides after parent dosing; for AUC0-tlast/dose: IV BPA or BPS dosing; for Tmax: glucuronide after IV BPA or BPS dosing. As for the experimental part:
Table 1 summarizes the protocol of the experiments and the plasma and urine datasets further considered for TK analyses. A first experiment (Exp. 1) was performed in 8 male piglets age 42 d ( 20.8±1.6kg BW) to investigate oral BPA TK. […] BPA data obtained after IV BPA administrations had already been used to evaluate human BPA clearance using an allometric approach ([Collet et al. 2015]).
For the IV administrations, BPA powder was dissolved in ethanol–propylene glycol (1:49, vol:vol) at 50mg/mL (Exp.1 and 2) and in ethanol–saline (1:2, vol:vol) at 23mg/mL (Exp. 5).
During the first 24 h of sampling, the piglets were housed individually in stainless steel cages.
as §1, §2

Series [3] in a line: Cumulative urinary excretion after IV and oral dosing in piglets. The following applies: for fraction of parent dose recovered in urine as glucuronide, mean±SD / fraction of parent dose recovered in urine as glucuronide, range: by 24 h.
Description: Blood samples were collected in heparinized polypropylene tubes, immediately chilled in ice and centrifuged for 10 min at 3,000×g at 4°C, and the supernatant plasma was stored in polypropylene tubes at −20°C until assay. Total urine was filtered through a nylon mesh ( 250μm ) and collected in glass containers and chilled in ice. The volume of each urine sample and the sampling time were recorded. A urine sample was immediately chilled in ice and centrifuged for 10 min at 3,000×g at 4°C and stored at −20°C until assayed.
Analytes were quantified by Acquity UPLC-MS/MS (Waters Corporation).
All TK analyses were performed using the Phoenix® NLME (version 8.0; Pharsight Corporation). The plasma mass concentrations were converted into molar concentrations before analysis.
Series [4] in a line: Population semiphysiologically based 9-compartment TK model (NLME) of plasma and urine data in piglets. Conditions: for tvK25, rate constant liver to plasma for the glucuronide, Mean / tvK50, glucuronide elimination rate constant from plasma to urine, Mean / tvK56, distribution rate constant, Mean / tvK65, distribution rate constant, Mean / tvK105, rate constant of glucuronide formed by enterocytes absorbed into the systemic circulation, Mean / tvV, volume of the central compartment, Mean: bootstrap mean; for tvK25, rate constant liver to plasma for the glucuronide, Median / tvK50, glucuronide elimination rate constant from plasma to urine, Median / tvK56, distribution rate constant, Median / tvK65, distribution rate constant, Median / tvK105, rate constant of glucuronide formed by enterocytes absorbed into the systemic circulation, Median / tvV, volume of the central compartment, Median: bootstrap median; for mean volume of the central compartment: pig, in vivo; for tvV, volume of the central compartment, Mean / tvV, volume of the central compartment, Median: population primary parameter. As for the experimental part: The NLME model was therefore developed by combining the plasma and urinary data sets from the five TK experiments carried out in piglets, except for the urinary BPA concentration obtained after oral administration of BPA.
Different compartmental models and submodels were tested and compared using the likelihood ratio test (LRT). The primary parameters of the model, namely the volumes of distribution ( VBPA , VBPAG , VBPS , VBPSG ) and the first-order rate constants ( Kij ) and their associated precisions [standard error (SE)] were estimated by minimizing an objective function value (OFV) expressed as minus twice the log of the likelihood estimation ( −2LL ).
The between-subject variability (BSV) of the parameters was evaluated using the exponential model θparameter_i=θtv_parameter×exp(ηi) , where θparameter_i is the parameter estimated for the i^th individual, θtv_parameter is the typical population value of the parameter, and ηi is the deviation associated with the i^th individual from the corresponding value of the parameter at the population level. The distribution of ηi was assumed to be normal with a mean of 0 and a variance ω² . The BSV was reported as a coefficient of variation (CV) in the original scale CV(%)=100× exp (ω^2)−1 .
The residual variance was modeled using a combined additive and proportional error model Cobsij=Cpredij(1+ε1ij)+ε2ij where Cobsij and Cpredij are respectively the j^th observed and predicted concentrations for the i^th individual and ε1ij and ε2ij the multiplicative and additive residual errors.
The bootstrap tool (20 replicates) was used to evaluate the mean, median, SE, and coefficient of variation of the parameter estimates. The predictive ability of the model was checked graphically by plotting Visual Predictive Check plots to compare the observed data with the selected quantiles (here 20th, 50th and 80th percentiles) of data simulated using the model and obtained from 200–1,000 replicates from each animal based on the structure of the original data (i.e., dosing, timing and number of samples).
For the LRT test, the critical value of the χ^2 distribution considered for a given nominal risk and a given number of degrees of freedom was obtained using the Excel function CHISQ.INV.RT().
Figure 1. Schematic representation of the compartmental model. […] The link between the two central compartments was modeled with a compartment (CP2) that should be viewed as the liver. […] The fraction of absorbed BPA that is not hepatically transformed reaches the CP3 via K23 . The exchanges between CP2 and CP3 are bilateral, K32 being the rate constant between CP3 and CP2 and K23 the rate constant between CP2 and CP3. […] It was assumed that no phase-two metabolite other than BPAG (BPSG) was formed.
(12) Bioavailability=K12/K12+K110+K10×(1−K25/K25+K23) with K10 , K12 , K110 , K23; K25 as defined above.

Setting [5] is: IV BPA (n=7) or IV BPS (n=16) dosing.
Where [6] appears, read: oral BPA (n=4) or oral BPS (n=10) dosing.

SMILES strings stand for the structures.

From publication PMC6792350 (Environmental Health Perspectives, 2019) come the findings set out here.

Regarding `CC(C)(c1ccc(O)cc1)c1ccc(O[C@@H]2O[C@H](C(=O)O)[C@@H](O)[C@H](O)[C@H]2O)cc1` [BPAG, Bisphenol A glucuronide], in series [1], the Cmax/dose came out at 0.58±0.34 μmol/L per μmol/kg BW, the AUClast/dose came to 1.75±0.73 μmol×h/L per μmol/kg BW and the Tmax turned out to be 74.4 ± 64.2 min. Besides, in series [2], the “time after which plasma concentrations were below the LOQ” value was 12 to 24 h, the “time of maximal plasma glucuronide concentration” value is reported as “about 20 min”, the Cmax/dose stood at 1.80±0.85 μmol/L per μmol/kg BW and the AUC0-tlast/dose came out at 2.04±0.58 μmol×h/L per μmol/kg. Also, the Tmax in series [2] is 21 ± 20.4 min. Further, the “fraction of parent dose recovered in urine as glucuronide, mean±SD” value (shortened to “fraction of parent dose recovered … mean±SD”) in series [3] (setting [5]) is listed as 97.0±27.6%. Moreover, the “fraction of parent dose recovered in urine as glucuronide, range” value (shortened to “fraction of parent dose recovered … range”) in series [3] (IV BPA or BPS dosing) is reported as 63.1–135.7%. For the same molecule, in series [3] (setting [6]), the “fraction of parent dose recovered … mean±SD” value amounted to 62.2±15.8%. For the same molecule, the “fraction of parent dose recovered … range” value in series [3] (oral BPA or BPS dosing) is given as 49.5–80.2%. In addition, in series [4], the “tvK25, rate constant liver to plasma for the glucuronide, Mean” value worked out at 137.08 h⁻¹; the “tvK50, glucuronide elimination rate constant from plasma to urine, Mean” value came to 2.750 h⁻¹; the “tvK56, distribution rate constant, Mean” value was determined as 1.45 h⁻¹; the “tvK65, distribution rate constant, Mean” value amounted to 0.015 h⁻¹. Moreover, in series [4], the “tvK105, rate constant of glucuronide formed by enterocytes absorbed into the systemic circulation, Mean” value was found to be 0.207 h⁻¹; the “tvK25, rate constant liver to plasma for the glucuronide, Median” value was 91.87 h⁻¹; the “tvK50, glucuronide elimination rate constant from plasma to urine, Median” value is 2.547 h⁻¹; the “tvK56, distribution rate constant, Median” value stood at 1.45 h⁻¹. In series [4], the “tvK65, distribution rate constant, Median” value turned out to be 0.015 h⁻¹; the “tvK105, rate constant of glucuronide formed by enterocytes absorbed into the systemic circulation, Median” value is 0.217 h⁻¹; the “mean volume of the central compartment” value stood at 0.11 L/kg; the “tvV, volume of the central compartment, Mean” value worked out at 0.107 L/kg. In series [4], the “tvV, volume of the central compartment, Median” value is listed as 0.112 L/kg.
Take `O=S(=O)(c1ccc(O)cc1)c1ccc(O)cc1` [BPS, bisphenol S]: the “part of the dose eliminated in urine” value in series [3] (3 h after dosing) is recorded as “About half”. Further, the “unconjugated compound in urine, fraction of IV dose” value in series [3] (IV BPA and BPS doses) was 0.027±0.0084%.
For the molecule `O=C([O-])[C@H]1O[C@@H](Oc2ccc(S(=O)(=O)c3ccc(O)cc3)cc2)[C@H](O)[C@@H](O)[C@@H]1O.[Na+]` [BPSG, Bis(4-hydroxyphenyl) Sulfone O-β-D-Glucuronide-Sodium Salt], in series [1], the Cmax/dose is recorded as 2.94±4.78 μmol/L per μmol/kg BW, the AUClast/dose is 2.87±0.99 μmol×h/L per μmol/kg BW and the Tmax was 43.8 ± 18 min. Further, in series [2], the “time after which plasma concentrations were below the LOQ” value fell in the range of 8 to 12 h, the “time of maximal plasma glucuronide concentration” value is reported as “about 20 min”, the Cmax/dose was determined as 2.55±0.58 μmol/L per μmol/kg BW and the AUC0-tlast/dose was found to be 2.59±0.77 μmol×h/L per μmol/kg. In addition, in series [2], the Tmax is 17.4 ± 11.4 min. In series [3] (24 h post dosing, IV BPSG), the “fraction of the IV BPSG dose recovered in urine, range” value is recorded as 40.1–69.8% and the “mean fraction of the IV BPSG dose recovered in urine” value is listed as 59.0±9.96%. Also, the “fraction of parent dose recovered … mean±SD” value in series [3] (setting [5]) came to 76.8±20.1%. Besides, in series [3] (IV BPA or BPS dosing), the “fraction of parent dose recovered … range” value is 36.3–107.9%. For the same molecule, in series [3] (setting [6]), the “fraction of parent dose recovered … mean±SD” value came to 86.5±23.9%. The “fraction of parent dose recovered … range” value in series [3] (oral BPA or BPS dosing) is on record as 65.5–126.8%. Besides, in series [4], the “tvK25, rate constant liver to plasma for the glucuronide, Mean” value was 66.6 h⁻¹; the “tvK50, glucuronide elimination rate constant from plasma to urine, Mean” value is 1.818 h⁻¹; the “tvK56, distribution rate constant, Mean” value stood at 0.730 h⁻¹; the “tvK65, distribution rate constant, Mean” value was 0.006 h⁻¹. Further, in series [4], the “tvK105, rate constant of glucuronide formed by enterocytes absorbed into the systemic circulation, Mean” value was found to be 0.534 h⁻¹; the “tvK25, rate constant liver to plasma for the glucuronide, Median” value was 62.147 h⁻¹; the “tvK50, glucuronide elimination rate constant from plasma to urine, Median” value was 1.832 h⁻¹; the “tvK56, distribution rate constant, Median” value worked out at 0.655 h⁻¹. Moreover, in series [4], the “tvK65, distribution rate constant, Median” value worked out at 0.006 h⁻¹; the “tvK105, rate constant of glucuronide formed by enterocytes absorbed into the systemic circulation, Median” value is 0.523 h⁻¹; the “mean volume of the central compartment” value is 0.14 L/kg; the “tvV, volume of the central compartment, Mean” value is 0.135 L/kg. Also, the “tvV, volume of the central compartment, Median” value in series [4] is 0.137 L/kg.
